Measurements published in US20090221522A1, “METHODS TO CORRECT GENE SET EXPRESSION PROFILES TO DRUG SENSITIVITY” (The Johns Hopkins University, priority 2008, published 2009).

Tested on: patient-derived xenografts refractory to gemcitabine
Assay: Pre-clinical second-line study in xenografts refractory to gemcitabine (TGI)
Assay type: in vivo, mice
Settings: for TGI: treated with gemcitabine (first line)
Description: FIG. 11 illustrates a pre-clinical design.
FIG. 12 illustrates validation on the xenografts of FIG. 11 based on prediction according to the present invention. Four xenograft cases were used. […] A case is defined as a responder to the drug treatment if Tumor Growth Inhibition (TGI) is <20%. Negative TGI values indicate tumor regression.
Relative tumor growth index (TGI) was calculated as TGI=(Ti−T0/Ci−C0) if Ti>T0 (indicates tumor growth inhibition) and TGI=(Ti−T0) if Ti≦T0 (indicates tumor regression). T and C represent tumor size in the treated and control group at the last of experiment, respectively; T0 and C0 represent tumor size in the treated and control group at the start of treatment, respectively.
Seven FDA approved anticancer agents (capecitabine, cisplatin, docetaxel, doxorubicin, etoposide, irinotecan and oxaliplatin) were used as potential second line of drugs for selection according to the present invention. The one-size-fits-all treatment was erlotinib, an FDA approved targeted therapy for advanced pancreatic cancer. See Moore M J, Goldstein D, Hamm J, et al. Erlotinib plus gemcitabine compared with gemcitabine alone in patients with advanced pancreatic cancer: a phase Ill trial of the National Cancer Institute of Canada Clinical Trials Group. J Clin Oncol 25:1960-06 2007. […] Xenograft models of these cases were randomly assigned to (i) control, (ii) erlotinib arm (one-size-fits-all second line treatment) and (iii) molecular mimicry arm (i.e., drug selection according to the present invention). For the molecular mimicry arm, the baseline gene expression profiles of these cases were connected the NCI reference panel using GS-CMAP, and one of the seven anticancer agents was assigned to the case based on comparing the GI50 among these drugs. Molecular mimicry predicted that JH033 and JH034 are sensitive to docetaxel, PANC185 is sensitive to irinotecan and PANC219 is sensitive to doxorubicin. These cases were treated with the molecular mimicry choice of drugs and tumor volumes were measured. At the end of the experiment, xenografts treated with molecular mimicry choice of drugs had higher tumor growth inhibition than their litter mates treated with erlotinib (FIGS. 12 and 13).

Nc1ccn([C@@H]2O[C@H](CO)[C@@H](O)C2(F)F)c(=O)n1 [gemcitabine]
median TGI (four xenograft cases (PANC185, PANC219, JH033, JH034)): 36.5% | TGI (xenograft JH033): more than 20% | TGI (xenograft JH034): more than 20% | TGI (xenograft PANC185): more than 20% | TGI (xenograft PANC219): more than 20%
